Source: patent US12679878B2, “CRF2 receptor agonists and their use in therapy” (SANOFI, priority 2020, dated 2026)
Where two headings read alike, the source gives them in different places. Starred links: 1 amine or outer side, 2 acyl side, 3 side chain; linkers in the order of their positions; H or OH if unused. Non-standard residues stand in square brackets, D forms with d. Residues, ends and D or L forms follow the SMILES beside them. Groups on a side chain read outwards from the residue. *: point of attachment. C18 diacid = O=C(O)CCCCCCCCCCCCCCCCC(=O)*; γGlu = O=C(O)[C@H](CCC(=O)[*:2])N[*:1]; AEEA = NCCOCCOCC(=O)O; Aib = CC(C)(N)C(=O)O

How the values were obtained:
Assay type in all cases: cell-based
rat CRF2R α receptor = experiment: cAMP agonism at rat CRF2R α receptor in A7R5 rat aortic smooth muscle cells (Example 8); conditions: cAMP HTRF, A7R5 rat aortic smooth muscle cell line, 0% HSA
In short: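 Potency (EC50) is the concentration reaching half-maximal activation, with responses scaled so that 1000 nM urocortin 2 equals 100%. Intracellular cAMP was quantified by homogeneous time-resolved fluorescence at 665/620 nm, 1 h after lysis-buffer reagents. Compound stimulation lasted 30 min at room temperature on 2000 IBMX-treated (2 mM) cells per well in HEPES-buffered HBSS.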

human CRF2α receptor = molecular target: T1, human CRF2α receptor (Homo sapiens, UniProt Q13324); experiment: cAMP agonism at human CRF2 α receptor in TeloHEAC cells (Example 7); conditions: cAMP HTRF, TeloHEAC cells stably expressing human CRF2 α
T1 construct: expressed in transfected cells; host or cells: TeloHEAC
T1 sequence (Q13324 1-411): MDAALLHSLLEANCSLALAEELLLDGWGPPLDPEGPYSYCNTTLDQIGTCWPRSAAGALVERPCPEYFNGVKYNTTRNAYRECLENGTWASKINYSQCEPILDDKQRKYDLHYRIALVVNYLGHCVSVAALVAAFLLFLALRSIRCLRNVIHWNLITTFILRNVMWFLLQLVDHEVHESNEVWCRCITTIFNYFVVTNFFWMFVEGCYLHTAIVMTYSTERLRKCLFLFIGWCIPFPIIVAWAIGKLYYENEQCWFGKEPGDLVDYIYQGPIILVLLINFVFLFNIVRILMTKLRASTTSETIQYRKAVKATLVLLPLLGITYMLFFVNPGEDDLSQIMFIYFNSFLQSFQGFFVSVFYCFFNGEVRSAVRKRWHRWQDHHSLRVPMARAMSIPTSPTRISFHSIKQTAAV
In short: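 Percent activation was referenced to 1000 nM UCN2 (100%), and EC50 values taken as concentrations giving half of maximal response. The read-out was a homogeneous time-resolved fluorescence cAMP kit, fluorescence ratio 665/620 nm. Thawed cells (2000/well) saw compound for 30 min at RT in buffer with 2 mM IBMX and 0%/0.1% HSA.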

CRF1R receptor = molecular target: T2, CRF1R receptor (Homo sapiens, UniProt P34998); experiment: cAMP activity at anti-target CRF1R, CRF1R-overexpression CHO cell line (Example 9); conditions: CRF1R-overexpression CHO cell line; for EC50: 0% HSA; for Emax: read-out: Emax (%)
T2 construct: host or cells: CHO-K1 clone 2
T2 sequence (P34998 24-415): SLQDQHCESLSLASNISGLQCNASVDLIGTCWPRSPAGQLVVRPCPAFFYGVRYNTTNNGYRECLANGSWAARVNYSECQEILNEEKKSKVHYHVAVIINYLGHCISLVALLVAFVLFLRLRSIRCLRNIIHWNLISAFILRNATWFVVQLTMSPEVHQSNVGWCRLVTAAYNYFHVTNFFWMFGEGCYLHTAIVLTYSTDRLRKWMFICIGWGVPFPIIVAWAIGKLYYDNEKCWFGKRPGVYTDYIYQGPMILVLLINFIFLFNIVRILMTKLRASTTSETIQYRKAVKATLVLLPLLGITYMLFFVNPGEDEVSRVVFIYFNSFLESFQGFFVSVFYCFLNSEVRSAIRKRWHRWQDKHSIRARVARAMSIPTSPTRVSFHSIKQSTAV
In short: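 Using thawed CRF1R-overexpressing CHO cells at 2000 per well, compound is applied for 30 min at RT in HBSS/HEPES buffer with IBMX. Cellular cAMP content is determined via HTRF, and percent activity is calculated against 1000 nM UCN2 defined as 100%.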

[1] = 0% HSA, read-out: EC50 [nM], 0% HSA
[2] = 0.1% HSA, read-out: EC50 [nM], 0.1% HSA

CC[C@H](C)[C@H](N)C(=O)N[C@H](C(=O)N[C@@H](CC(C)C)C(=O)N[C@@H](CO)C(=O)N[C@@H](CC(C)C)C(=O)N[C@@H](CC(=O)O)C(=O)N[C@@H](C(=O)N1CCC[C@H]1C(=O)N[C@H](C(=O)NCC(=O)N[C@@H](CC(C)C)C(=O)N[C@@H](CCCCNC(=O)COCCOCCNC(=O)COCCOCCNC(=O)CC[C@H](NC(=O)CCCCCCCCCCCCCCCCC(=O)O)C(=O)O)C(=O)N[C@@H](CCC(N)=O)C(=O)N[C@H](C(=O)N[C@@H](CC(C)C)C(=O)N[C@@H](CC(C)C)C(=O)N[C@@H](CCCCN)C(=O)N[C@@H](CCC(N)=O)C(=O)N[C@@H](CCC(=O)O)C(=O)N[C@@H](CCCNC(=N)N)C(=O)N[C@@H](CCC(N)=O)C(=O)N[C@@H](CCCCN)C(=O)N[C@@H](CCCCN)C(=O)NC(C)(C)C(=O)N[C@@H](CCCNC(=N)N)C(=O)N[C@@H](CCC(=O)O)C(=O)N[C@@H](CCC(N)=O)C(=O)N[C@@H](C)C(=O)N[C@@H](CCC(=O)O)C(=O)N[C@H](C(=O)N[C@@H](CC(N)=O)C(=O)N[C@@H](CCCCN)C(=O)N[C@@H](CCC(N)=O)C(=O)N[C@H](C(=O)N[C@@H](CC(C)C)C(=O)N[C@@H](C)C(=O)N[C@@H](CCC(N)=O)C(=O)N[C@H](C(N)=O)C(C)C)[C@@H](C)CC)[C@@H](C)O)[C@@H](C)CC)[C@@H](C)CC)C(C)C)C(C)C [compound 147] (H-IVLSLD[dV]PIGLK([AEEA-AEEA-γGlu-C18 diacid])QILLKQERQKK[Aib]REQAETNKQILAQV-NH2; N-terminus assumed)
EC50 (rat CRF2R α receptor): 2.53 nM
EC50 (human CRF2α receptor; [1]): 0.18 nM
EC50 (human CRF2α receptor; [2]): 8.17 nM
EC50 (CRF1R receptor): > 1000 nM
Emax (CRF1R receptor): 4.54%

CC[C@H](C)[C@H](N)C(=O)N[C@H](C(=O)N[C@@H](CC(C)C)C(=O)N[C@@H](CO)C(=O)N[C@@H](CC(C)C)C(=O)N[C@@H](CC(=O)O)C(=O)N[C@@H](C(=O)N1CCC[C@H]1C(=O)N[C@H](C(=O)NCC(=O)N[C@@H](CC(C)C)C(=O)N[C@@H](CCCCNC(=O)COCCOCCNC(=O)COCCOCCNC(=O)CC[C@H](NC(=O)CCCCCCCCCCCCCCCCC(=O)O)C(=O)O)C(=O)N[C@@H](CCC(N)=O)C(=O)N[C@H](C(=O)N[C@@H](CC(C)C)C(=O)N[C@@H](CC(C)C)C(=O)N[C@@H](CCCCN)C(=O)N[C@@H](CCC(N)=O)C(=O)N[C@@H](CCC(=O)O)C(=O)N[C@@H](CCCNC(=N)N)C(=O)N[C@@H](CCC(N)=O)C(=O)N[C@@H](CCCCN)C(=O)N[C@@H](CCCCN)C(=O)NC(C)(C)C(=O)N[C@@H](CCCNC(=N)N)C(=O)N[C@@H](CCC(=O)O)C(=O)N[C@@H](CCC(N)=O)C(=O)N[C@@H](C)C(=O)N[C@@H](CCC(=O)O)C(=O)N[C@@H](CCCCN)C(=O)N[C@@H](CC(N)=O)C(=O)N[C@@H](CCCCN)C(=O)N[C@@H](CCCNC(=N)N)C(=O)N[C@H](C(=O)N[C@@H](CC(C)C)C(=O)N[C@@H](CCC(=O)O)C(=O)N[C@@H](CCCNC(=N)N)C(=O)N[C@H](C(N)=O)C(C)C)[C@@H](C)CC)[C@@H](C)CC)[C@@H](C)CC)C(C)C)C(C)C [compound 151] (H-IVLSLD[dV]PIGLK([AEEA-AEEA-γGlu-C18 diacid])QILLKQERQKK[Aib]REQAEKNKRILERV-NH2; N-terminus assumed)
EC50 (rat CRF2R α receptor): 0.49 nM
EC50 (human CRF2α receptor; [1]): 0.08 nM
EC50 (human CRF2α receptor; [2]): 3.87 nM
EC50 (CRF1R receptor): > 1000 nM
Emax (CRF1R receptor): 9.07%
